Values joined by “and” are separate entries in the source; they are usually repeats but may differ in a detail not shown here. Equal values may be shown once.
Assay: solvent given as SMILES

Structure (SMILES): COCCOc1cc(C=O)c(OCCOC)cc1C=O
- emission maximum (in CC(C)(C)O): 478 nm
- emission maximum (in CC(C)CO): 479 nm
- emission maximum (in CC(C)O): 479 nm
- emission maximum (in CCCCO): 462 nm
- emission maximum (in CCCO): 463 nm
- emission maximum (in CCO): 464 nm
- emission maximum (in CN(C)C=O): 465 nm
- emission maximum (in CNC=O): 450 nm
- emission maximum (in CO): 466 nm
- emission maximum (in NC=O): 456 nm
- emission maximum (in O): 495 nm

Structure (SMILES): CN1c2cc3nc4cc(F)c(F)cc4nc3cc2N(C)C1(C)C
- emission maximum (in CCO): 488 nm

Structure (SMILES): C1=Cc2ccccc2C(=Cc2ccc(-c3cc(-c4ccc(C=C5c6ccccc6C=Cc6ccccc65)cc4)cc(-c4ccc(C=C5c6ccccc6C=Cc6ccccc65)cc4)c3)cc2)c2ccccc21
- emission maximum (in C1CCOC1): 405 nm

Structure (SMILES): Cc1cc2ccccc2c2[nH]c3ccccc3c12
- emission maximum (in ClCCl): 360 nm

Structure (SMILES): CN(C)c1ccc(-c2c(/C=C3/C=Cc4ccccc4N3C)c(=O)c2=O)cc1
- emission maximum (in C1CCCCC1): 427 nm
- emission maximum (in Cc1ccccc1): 435 nm
- emission maximum (in ClCCl): 588 nm

Structure (SMILES): F[B-]1(F)n2c(ccc2-c2ccccc2)C(c2ccc(I)cc2)=C2C=CC(c3ccccc3)=[N+]21
- emission maximum (in ClC(Cl)Cl): 588 nm

Structure (SMILES): CC[n+]1nc2cc3c4c(c2c2cc(F)ccc21)CCCN4CCC3
- emission maximum (in O): 564 nm

Structure (SMILES): CCCCOc1c(OC)cc2cc(OC)c(OCCCC)c3c4c(OCCCC)c(OC)cc5cc(OC)c(OCCCC)c(c1c23)c54
- emission maximum (in ClCCl): 474 nm

Structure (SMILES): Oc1ccc(-c2nc(-c3ccccc3)c(-c3ccccc3)[nH]2)cc1
- emission maximum (in CO): 400 nm

Structure (SMILES): CC(C)c1cccc(C(C)C)c1N1C(=O)c2cccc3c(Oc4ccc(C(C)(C)C)cc4)ccc(c23)C1=O
- emission maximum (in ClCCl): 434 nm

Structure (SMILES): O=Cc1ccc(C#CC(C#Cc2ccc(C=O)o2)=Cc2ccc(C=C(C#Cc3ccc(C=O)o3)C#Cc3ccc(C=O)o3)cc2)o1
- emission maximum (in ClC(Cl)Cl): 518 nm

Structure (SMILES): N#Cc1cc2ccc3cc(C#N)c4ccccc4c3c2c2ccccc12
- emission maximum (in ClC(Cl)Cl): 429 nm

Structure (SMILES): CC1(C)C(/C=C/C2=C(Cl)C(=C/C=C3/N(Cc4ccc(C(=O)O)cc4)c4ccccc4C3(C)C)/CCC2)=[N+](Cc2ccc(C(=O)O)cc2)c2ccccc21
- emission maximum (in CO): 814 nm

Structure (SMILES): CCN(CC)c1ccc2cc(-c3nc4ccccc4s3)c(=O)oc2c1
- emission maximum (in C1CCCCC1): 462 nm
- emission maximum (in CC1CCCCC1): 462 nm
- emission maximum (in CC#N): 501 nm and 506.6 nm
- emission maximum (in CCC(C)CC): 461.6 nm
- emission maximum (in CCCCCC): 463 nm
- emission maximum (in CCO): 505 nm
- emission maximum (in CCOC(C)=O): 492.8 nm

Structure (SMILES): F[Si-](F)(c1ccccc1)(c1ccccc1)c1cccc2ccccc12
- emission maximum (in C1CCOC1): 338 nm

Structure (SMILES): CC(C)(C)c1ccc(-c2ccc(-c3c4c(nc5ccccc35)-c3cc5c(cc3CC4)-c3nc4ccccc4c(-c4ccc(-c6ccc(C(C)(C)C)cc6)cc4)c3CC5)cc2)cc1
- emission maximum (in ClC(Cl)Cl): 388 nm

Structure (SMILES): COc1cc(C2=CC3=C(c4c(C)cc(C)cc4C)c4cc(-c5cc(OC)c(OC)c(OC)c5)c(-c5cc(OC)c(OC)c(OC)c5)n4[B-](F)(F)[N+]3=C2c2cc(OC)c(OC)c(OC)c2)cc(OC)c1OC
- emission maximum (in C1CCCCC1): 670 nm
- emission maximum (in C1CCOC1): 662 nm
- emission maximum (in CC#N): 628 nm
- emission maximum (in Cc1ccccc1): 677 nm
- emission maximum (in ClCCl): 651 nm

Structure (SMILES): c1ccc(-c2nc(-c3cc(-n4c5ccccc5c5ccccc54)cc(-n4c5ccccc5c5ccccc54)c3)nc(-c3cc(-n4c5ccccc5c5ccccc54)cc(-n4c5ccccc5c5ccccc54)c3)n2)cc1
- emission maximum (in C1CCCCC1): 438.78 nm
- emission maximum (in C1CCOC1): 595.92 nm
- emission maximum (in Cc1ccccc1): 504.9 nm

Structure (SMILES): N#C/C(=C\c1ccc(-c2ccncc2)cc1)c1ccc(-c2ccncc2)cc1
- emission maximum (in ClCCl): 460 nm

Structure (SMILES): N#Cc1ccc2c(c1)CCc1nc(-c3ccc([N+](=O)[O-])cc3)c3c(c1-2)CCc1cc(C#N)ccc1-3
- emission maximum (in C1CCOC1): 469 nm
- emission maximum (in CC#N): 525 nm
- emission maximum (in CCCCCC): 413 nm
- emission maximum (in CCOC(C)=O): 452 nm
- emission maximum (in CO): 475 nm
- emission maximum (in CS(C)=O): 510 nm
- emission maximum (in Cc1ccccc1): 443 nm
- emission maximum (in ClCCl): 475 nm

Structure (SMILES): C[NH+](C)c1c2ccccc2cc2ccccc12
- emission maximum (in O): 400 nm

Structure (SMILES): N#Cc1ccc(C2=CC3=c4cc(-c5ccc(C#N)cc5)c5nc(C(F)(F)C(F)(F)C(F)(F)F)nc6c(-c7ccc(C#N)cc7)cc(c4c65)C4=CC(c5ccc(C#N)cc5)=C5N=C(C(F)(F)C(F)(F)C(F)(F)F)N=C2C5C43)cc1 (stereo unspecified)
- emission maximum (in C1CCOC1): 518 nm

Structure (SMILES): c1cc2c3c(cccc3c1)-c1c-2c2ccccc2c2ccccc12
- emission maximum (in CCCCCCC): 536 nm

Structure (SMILES): COc1ccc(-c2nc(-c3cc(Cl)sc3C)c(-c3cc(Cl)sc3C)[nH]2)cc1
- emission maximum (in CC#N): 489 nm

Structure (SMILES): c1ccc(-n2c(-c3ccccc3-n3c4ccccc4c4ccccc43)nc3ccccc32)cc1
- emission maximum (in C1CCOC1): 396 nm

Structure (SMILES): COc1ccc(/C=C(\c2ccccc2)c2nc3ccccc3s2)cc1
- emission maximum (in C1CCCCC1): 400 nm
- emission maximum (in CO): 420 nm

Structure (SMILES): CC1=C(c2cccs2)C(C)=[N+]2C1=C(c1ccc(OS(=O)(=O)c3ccc([N+](=O)[O-])cc3[N+](=O)[O-])cc1)c1c(C)c(-c3cccs3)c(C)n1[B-]2(F)F
- emission maximum (in CO): 609 nm
- emission maximum (in Cc1ccccc1): 608 nm
- emission maximum (in ClCCl): 607 nm

Structure (SMILES): CCOC(=O)c1c(-c2cc3c(ccc4ccccc43)oc2=O)nn(-c2cccc(Cl)c2)c1C(=O)OCC
- emission maximum (in ClCCl): 442 nm

Structure (SMILES): Cc1cc(C)c(B2c3cc(C(C)(C)C)ccc3-c3cccc4cc(C(C)(C)C)cc2c34)c(C)c1
- emission maximum (in C1CCCCC1): 431 nm

Structure (SMILES): N#Cc1c(-c2ccc(N(c3ccccc3)c3ccccc3)cc2)c(C#N)c(-c2ccc(N(c3ccccc3)c3ccccc3)cc2)c(C#N)c1-c1ccc(N(c2ccccc2)c2ccccc2)cc1
- emission maximum (in O=P(c1ccccc1)(c1ccccc1)c1ccccc1Oc1ccccc1P(=O)(c1ccccc1)c1ccccc1): 533 nm

Structure (SMILES): Cc1ccc2nc(-c3cccc4nc(C)[nH]c(=O)c34)[nH]c2c1
- emission maximum (in CN(C)C=O): 431 nm

Structure (SMILES): CCCCn1c(-c2ccc(-c3ccc(-c4ccc(-c5n(CCCC)c6ccccc6[n+]5CCCC)cc4)cc3)cc2)[n+](CCCC)c2ccccc21
- emission maximum (in O): 397 nm

Structure (SMILES): CCCCN1C(=O)c2cc(Oc3ccc(C(C)(C)C)cc3)c3c4c(Oc5ccc(C(C)(C)C)cc5)c(Oc5ccc(C(C)(C)C)cc5)c5c6c(cc(Oc7ccc(C(C)(C)C)cc7)c(c7c(Oc8ccc(C(C)(C)C)cc8)c(Oc8ccc(C(C)(C)C)cc8)c(c2c37)C1=O)c64)C(=O)N(CCCC)C5=O
- emission maximum (in ClC(Cl)Cl): 610 nm

Structure (SMILES): CCOC(=O)c1c(-c2c(Cl)c3ccccc3oc2=O)nn(-c2cccc(C)c2)c1C(=O)OCC
- emission maximum (in ClCCl): 410 nm

Structure (SMILES): CN(C)c1ccc(-c2cc[n+](C)cc2)s1
- emission maximum (in CCO): 507 nm

Structure (SMILES): C[N+]1=C(/C=C/C=C2/N(CCC[N+](C)(C)C)c3ccccc3C2(C)C)C(C)(C)c2ccccc21
- emission maximum (in CS(C)=O): 565 nm

Structure (SMILES): CCCCn1c(-c2ccc(-c3nnc(-c4ccccc4)o3)cc2)nc(-c2ccccc2)c1-c1ccccc1
- emission maximum (in ClCCl): 441 nm

Structure (SMILES): COc1cc(N(c2ccc(C=C(C#N)C#N)c(OC)c2)c2ccc(C=C(C#N)C#N)c(OC)c2)ccc1C=C(C#N)C#N
- emission maximum (in C1COCCO1): 521 nm
- emission maximum (in CC#N): 566 nm
- emission maximum (in CC(C)=O): 557 nm
- emission maximum (in CCOC(C)=O): 532 nm
- emission maximum (in CN(C)C=O): 575 nm
- emission maximum (in CO): 551 nm
- emission maximum (in Cc1ccccc1): 500 nm
- emission maximum (in ClC(Cl)Cl): 514 nm
- emission maximum (in ClCCl): 531 nm

Structure (SMILES): COc1c(-c2ccc(N(C)C)cc2)oc2ccccc2c1=O
- emission maximum (in C1CCCCC1): 413.89 nm
- emission maximum (in CC#N): 490.48 nm
- emission maximum (in CCOC(C)=O): 468.65 nm

Structure (SMILES): CC[n+]1c(-c2ccccc2)c2cc(N)ccc2c2ccc(NC(N)=[NH2+])cc21
- emission maximum (in O): 590 nm

Structure (SMILES): O=C([O-])c1ccc(C2=c3cc4c5c(c3Oc3c2cc2c6c3CCCN6CCC2)CCC[N+]=5CCC4)c(C(=O)[O-])c1
- emission maximum (in CCO): 601 nm
- emission maximum (in O): 603 nm

Structure (SMILES): CCOC(=O)c1c(-c2cc3ccc(OC)cc3oc2=O)nn(-c2cccc(Cl)c2)c1C(=O)OCC
- emission maximum (in ClCCl): 422 nm

Structure (SMILES): Cc1n[nH]c2c1C(c1ccc([N+](=O)[O-])cc1)C(C#N)=C(N)O2 (stereo unspecified)
- emission maximum (in C1CCOC1): 393 nm
- emission maximum (in C1COCCO1): 390 nm
- emission maximum (in CC#N): 407 nm
- emission maximum (in CCCCO): 410 nm
- emission maximum (in CCCO): 411 nm
- emission maximum (in CCO): 414 nm
- emission maximum (in CCOC(C)=O): 396 nm
- emission maximum (in CN(C)C=O): 405 nm
- emission maximum (in CO): 417 nm
- emission maximum (in CS(C)=O): 404 nm
- emission maximum (in Cc1ccccc1): 387 nm
- emission maximum (in ClCCl): 402 nm

Structure (SMILES): COC1=C/C(=C\C=C2C=CN(Cc3ccc(Br)cc3)C=C2)C=CC1=O
- emission maximum (in CC#N): 665 nm
- emission maximum (in CC(C)=O): 670 nm
- emission maximum (in CC(C)CO): 642 nm
- emission maximum (in CC(C)O): 641 nm
- emission maximum (in CCC#N): 665 nm
- emission maximum (in CCCCCCO): 645 nm
- emission maximum (in CCCCCO): 643 nm
- emission maximum (in CCCCO): 640 nm
- emission maximum (in CCCO): 639 nm
- emission maximum (in CCO): 638 nm
- emission maximum (in CN(C)C=O): 682 nm
- emission maximum (in CN(C)P(=O)(N(C)C)N(C)C): 670 nm
- emission maximum (in CO): 636 nm
- emission maximum (in CS(C)=O): 669 nm

Structure (SMILES): CCCCc1ccc(-n2c3c4cc(F)ccc4nc(-c4ccc(OC)cc4)c3c3c2c2c(-c4ccc(OC)cc4)nc4ccc(F)cc4c2n3-c2ccc(CCCC)cc2)cc1
- emission maximum (in ClC(Cl)Cl): 527 nm

Structure (SMILES): Cc1cccc(C)c1N1C(c2ccccc2)=Cc2cccc[n+]2[B-]1(F)F
- emission maximum (in ClCCl): 453 nm

Structure (SMILES): CC1=N/C(=C\c2cccc(N(C)C)c2)C(=O)N1CCO
- emission maximum (in C1CCOC1): 585 nm
- emission maximum (in CC#N): 656 nm
- emission maximum (in CCCCCC): 506 nm

Structure (SMILES): CC(C)[Si]1(C(C)C)c2cc(N(C)C)ccc2-c2ccc(C(F)(F)F)cc21
- emission maximum (in C1CCCCC1): 402 nm
- emission maximum (in CC#N): 440 nm
- emission maximum (in CCO): 422 nm
- emission maximum (in CCOCC): 410 nm
- emission maximum (in CS(C)=O): 451 nm
- emission maximum (in ClCCl): 423 nm
- emission maximum (in c1ccccc1): 410 nm

Structure (SMILES): O=C1OC(=O)c2ccc(N(c3ccccc3)c3ccc4ccccc4c3)c3cccc1c23
- emission maximum (in C1CCOC1): 621 nm
- emission maximum (in CCCCCC): 520 nm
- emission maximum (in ClCCl): 638 nm
- emission maximum (in c1ccccc1): 580 nm

Structure (SMILES): CCCCCCN1C(=O)C(c2ccc(-n3c4ccccc4c4ccccc43)cc2)=C(c2ccc(-n3c4ccccc4c4ccccc43)cc2)C1=O
- emission maximum (in ClC(Cl)Cl): 626 nm
- emission maximum (in c1ccc2c(c1)c1ccccc1n2-c1ccc(-c2ccc(-n3c4ccccc4c4ccccc43)cc2)cc1): 591 nm

— the Deep4Chem optical property database
